Paper PMC8639922, “KSHV transactivator-derived small peptide traps coactivators to attenuate MYC and inhibits leukemia and lymphoma cell growth” (Communications Biology, 2021)
Square brackets hold non-standard residues; d marks the D form. Peptide text beside a SMILES is read from it. Orn = NCCC[C@H](N)C(=O)O; βAla = NCCC(=O)O

Tested on: PEL-derived human cytokines
Experiment: Olink INFLAMMATION panel, cytokines in ascites fluid of PEL xenograft
Type: in vivo, mouse
Set-up: key to IL8 / CXCL10 / FGF-19 / IL-12B / TRAIL / VEGFA / IL-17A / CST5 / IL-18R1 / HGF / ARTN / bNGF: NPX, log2-normalized protein expression; key to 4E-BP1 / TWEAK / LAP TGF-beta-1 / Beta-NGF / LAPTGFb-1 / TWAEK / 4EBP-1 / IL-8: log2-scale normalized protein expression (NPX) values
Method: Fig. 6 VGN50 inhibits BCBL-1 cell growth in xenograft mice. a PEL-xenograft. BCBL-1 cells (2 × 10^7 cells) were injected i.p. Peptide (10 mg/kg) was administrated i.p. daily and tumor growth was monitored by measurement of body weight (n = 6–9 mice per group). b Ascites volume and PEL cell counts. In a separate experiment, ascites volume and PEL cell counts in ascites fluid were measured at day 10. (n = 3–4 mice per group) c Induction of atrophy. BCBL-1 cells isolated from ascites fluid were measured for FSC-A and SSC-A by flow cytometry. […] (n = 3) d Expression of inflammatory cytokines. Principal component analysis based on expression levels of inflammatory cytokine contents in ascites fluid. e Cytokine heat map. Heatmap generated based on abundance of the indicated cytokines in ascites fluids. Ascites fluid was taken at day 10. a–c Data were analyzed using ordinary one-way Anova followed by Tukey’s multiple comparisons test.
Since PELs are frequently involved in effusions in multiple body cavities in human patients and the amounts of inflammatory cytokines in the effusion are strong prognostic factors, we also extracted ascites fluid and profiled it to see if the PEL cell-derived human cytokine profile was also altered by continued VGN50 treatment.
PEL-derived cytokine profiles in ascites were measured with Olink analysis service with the Olink INFLAMMATION panel using proximity extension technology, a high-throughput multiplex proteomic immunoassay. In short, the panel includes 92 immune-related proteins, primarily cytokines and chemokines. The assay utilizes epitope-specific binding and hybridization of a set of paired oligonucleotide antibody probes, which is subsequently amplified using quantitative PCR, resulting in log base 2-normalized protein expression (NPX) values. The data was processed and analyzed with Olink Insight Stat Analysis software.

CC(C)C[C@H](NC(=O)CCNC(=O)[C@H](CCCNC(=N)N)NC(=O)[C@H](CCCNC(=N)N)NC(=O)[C@H](CCCNC(=N)N)NC(=O)[C@H](CCCN)NC(=O)[C@H](CCCNC(=N)N)NC(=O)[C@H](CCCNC(=N)N)NC(=O)[C@H](CCCCN)NC(=O)[C@H](CCCCN)NC(=O)[C@H](N)CCCNC(=N)N)C(=O)N[C@@H](CO)C(=O)N[C@@H](CO)C(=O)N[C@@H](C)C(=O)N[C@@H](C)C(=O)N[C@@H](C)C(=O)NCC(=O)N[C@@H](CC(C)C)C(=O)N[C@@H](Cc1ccc(O)cc1)C(=O)N[C@@H](CCC(N)=O)C(=O)N[C@@H](CC(C)C)C(=O)N[C@@H](CC(=O)O)C(=O)N[C@H](C(=O)O)[C@@H](C)O [Mt-P] (H-[dR]KKRR[Orn]RRR[βAla]LSSAAAGLYQLDT-OH; N-terminus and C-terminus assumed)
4E-BP1 (sheet Fig.6d-e, animal 1): 11.1631 | ARTN (sheet Fig.6d-e, animal 1): 5.386 | Beta-NGF (sheet Fig.6d-e, animal 1): -0.391 | CST5 (sheet Fig.6d-e, animal 1): 1.859 | CXCL10 (sheet Fig.6d-e, animal 1): 13.3461 | FGF-19 (sheet Fig.6d-e, animal 1): 2.165 | HGF (sheet Fig.6d-e, animal 1): 6.396 | IL8 (sheet Fig.6d-e, animal 1): 0.86 | IL-12B (sheet Fig.6d-e, animal 1): 2.007 | IL-17A (sheet Fig.6d-e, animal 1): 3.739 | IL-18R1 (sheet Fig.6d-e, animal 1): 4.131 | LAP TGF-beta-1 (sheet Fig.6d-e, animal 1): 6.199 | TRAIL (sheet Fig.6d-e, animal 1): 1.379 | TWEAK (sheet Fig.6d-e, animal 1): 8.018 | VEGFA (sheet Fig.6d-e, animal 1): 14.7314 | 4E-BP1 (sheet Fig.6d-e, animal 2): 11.0835 | ARTN (sheet Fig.6d-e, animal 2): 5.243 | Beta-NGF (sheet Fig.6d-e, animal 2): -0.4548 | CST5 (sheet Fig.6d-e, animal 2): 2.027 | CXCL10 (sheet Fig.6d-e, animal 2): 13.3201 | FGF-19 (sheet Fig.6d-e, animal 2): 2.0905 | HGF (sheet Fig.6d-e, animal 2): 6.305 | IL8 (sheet Fig.6d-e, animal 2): 0.7089 | IL-12B (sheet Fig.6d-e, animal 2): 2.204 | IL-17A (sheet Fig.6d-e, animal 2): 3.881 | IL-18R1 (sheet Fig.6d-e, animal 2): 4.133 | LAP TGF-beta-1 (sheet Fig.6d-e, animal 2): 6.253 | TRAIL (sheet Fig.6d-e, animal 2): 1.569 | TWEAK (sheet Fig.6d-e, animal 2): 8.091 | VEGFA (sheet Fig.6d-e, animal 2): 14.6793 | 4E-BP1 (sheet Fig.6d-e, animal 3): 10.8123 | ARTN (sheet Fig.6d-e, animal 3): 5.723 | Beta-NGF (sheet Fig.6d-e, animal 3): -0.3222 | CST5 (sheet Fig.6d-e, animal 3): 2.133 | CXCL10 (sheet Fig.6d-e, animal 3): 13.0806 | FGF-19 (sheet Fig.6d-e, animal 3): 2.37 | HGF (sheet Fig.6d-e, animal 3): 6.6 | IL8 (sheet Fig.6d-e, animal 3): 0.7009 | IL-12B (sheet Fig.6d-e, animal 3): 2.082 | IL-17A (sheet Fig.6d-e, animal 3): 4.127 | IL-18R1 (sheet Fig.6d-e, animal 3): 4.157 | LAP TGF-beta-1 (sheet Fig.6d-e, animal 3): 6.359 | TRAIL (sheet Fig.6d-e, animal 3): 1.603 | TWEAK (sheet Fig.6d-e, animal 3): 8.37 | VEGFA (sheet Fig.6d-e, animal 3): 14.8087 | 4EBP-1 (sheet SFig5, animal 1): 11.7332 | ARTN (sheet SFig5, animal 1): 5.386 | CST5 (sheet SFig5, animal 1): 1.859 | FGF-19 (sheet SFig5, animal 1): 2.165 | HGF (sheet SFig5, animal 1): 4.42 | IL-8 (sheet SFig5, animal 1): 0.86 | IL-12B (sheet SFig5, animal 1): 2.007 | IL-17A (sheet SFig5, animal 1): 1.782 | IL-18R1 (sheet SFig5, animal 1): 4.131 | LAPTGFb-1 (sheet SFig5, animal 1): 4.365 | TRAIL (sheet SFig5, animal 1): 1.379 | TWAEK (sheet SFig5, animal 1): 5.713 | VEGFA (sheet SFig5, animal 1): 13.2543 | bNGF (sheet SFig5, animal 1): -0.391 | 4EBP-1 (sheet SFig5, animal 2): 11.7927 | ARTN (sheet SFig5, animal 2): 5.243 | CST5 (sheet SFig5, animal 2): 2.027 | CXCL10 (sheet SFig5, animal 2): 11.2953 | FGF-19 (sheet SFig5, animal 2): 2.0905 | HGF (sheet SFig5, animal 2): 4.269 | IL-8 (sheet SFig5, animal 2): 0.7089 | IL-12B (sheet SFig5, animal 2): 2.204 | IL-17A (sheet SFig5, animal 2): 1.942 | IL-18R1 (sheet SFig5, animal 2): 4.133 | LAPTGFb-1 (sheet SFig5, animal 2): 4.29 | TRAIL (sheet SFig5, animal 2): 1.569 | TWAEK (sheet SFig5, animal 2): 5.701 | VEGFA (sheet SFig5, animal 2): 13.2545 | bNGF (sheet SFig5, animal 2): -0.4548 | 4EBP-1 (sheet SFig5, animal 3): 11.484 | ARTN (sheet SFig5, animal 3): 5.723 | CST5 (sheet SFig5, animal 3): 2.133 | CXCL10 (sheet SFig5, animal 3): 11.1526 | FGF-19 (sheet SFig5, animal 3): 2.37 | HGF (sheet SFig5, animal 3): 4.697 | IL-8 (sheet SFig5, animal 3): 0.7009 | IL-12B (sheet SFig5, animal 3): 2.082 | IL-17A (sheet SFig5, animal 3): 2.371 | IL-18R1 (sheet SFig5, animal 3): 4.157 | LAPTGFb-1 (sheet SFig5, animal 3): 4.688 | TRAIL (sheet SFig5, animal 3): 1.603 | TWAEK (sheet SFig5, animal 3): 6.152 | VEGFA (sheet SFig5, animal 3): 13.6674 | bNGF (sheet SFig5, animal 3): -0.3222
